Publication PMC9201908, “Expansion of the Strigolactone Profluorescent Probes Repertory: The Right Probe for the Right Application” (Frontiers in Plant Science, 2022)

Columns and labels:
[1] = tested on: rms1-10 pea mutant plants; test: Pea shoot-branching assay by direct application on the bud, rms1-10; type: in vivo, Pisum sativum; conditions: for Length of bud at node 3 /branch: direct application, rms1-10, 10 days after treatment, mean per replicate
Experimental: Pea (Pisum sativum) branching mutant plants used in this study were described previously (Rameau et al., [1997]). The SL biosynthesis rms1-10 (M3T-884) and SL response rms3-4 (M2T-30) mutants were obtained from the dwarf cv. Térèse. Plants were grown in a greenhouse under long days as described by Braun et al. ([2012]).
The compounds to be tested were applied directly to the axillary bud with a micropipette as 10 μL of a solution containing 0.1% of acetone with 2% of polyethylene glycol 1,450, 50% of ethanol, and 0.4% of DMSO. The control 0 is the treatment with 0.1% of DMSO without compound. A total of 24 plants were sown per treatment in trays (2 repetitions of 12 plants). The treatment was done 8 days after sowing, on the axillary bud at node 3. The branches at nodes 1–2 were removed to encourage the outgrowth of axillary buds at nodes above. Nodes were numbered acropetally from the first scale leaf as node 1 and cotyledonary node as node 0. Bud growth at node 3 was measured 10 days after treatment. Plants with damaged main shoot apex or showing a dead white treated bud were discarded from the analysis. The SL-deficient rms1-10 pea mutant was used for all experiments and WT Térèse as control. SL-perceived rms3-4 pea mutant was used to test that when bioactive, the analog acts via RMS3, and it was also used to check the putative toxicity of probes.

[2] = Stability of CoumarinAc and DiFMUAc (DMSO, PBS); type: physicochemical; conditions: in PBS and in DMSO (20°C), in comparison to CoumarinAc
Experimental: Dimethyl sulfoxide (DMSO) solution of the compound to be tested (1 mM) was incubated at 20°C in the HPLC vials. (±)-1-Indanol [Alfa Aesar, purity >97.5% (GC); 10 mM] was used as the internal standard. The samples were subjected to reverse-phase-ultra-performance liquid chromatography (RP-UPLC)-MS analyses by means of UPLC system equipped with a photo diode array (PDA) and a triple quadrupole detector (TQD) mass spectrometer (Acquity UPLC-TQD, Waters). RP-UPLC (HSS C18 column, 1.8 μm, 2.1 × 50 mm) with 0.1% (v/v) of formic acid in CH3CN and 0.1% (v/v) of formic acid in water (aq. FA, 0.1%, v/v, pH 2.8) were used as eluents [10% CH3CN, followed by linear gradient from 10 to 100% of CH3CN (4 min)] at a flow rate of 0.6 ml min^−1. The detection was done by PDA and with the TQD mass spectrometer operated in electrospray ionization-positive mode at 3.2 kV capillary voltage. To maximize the signal, the cone voltage and collision energy were optimized to 20 V and 12 eV, respectively. The collision gas used was argon at a pressure maintained near 4.5 10^−3 mBar. The relative quantity of the remaining (non-degraded) product was determined by integration comparison with the internal standard.

What does the source list for CC(=O)Oc1c(F)cc2c(C)cc(=O)oc2c1F [DiFMUAc]?
Length of bud at node 3 /branch ([1]; 10 nM): 23.71 mm; Length of bud at node 3 /branch ([1]; 100 nM): 19.75 mm; Length of bud at node 3 /branch ([1]; 1,000 nM): 22.17 mm; Effect on axillary bud ([1]; rms1-10, direct application, 100 nM): significant effect; Bioactivity on shoot branching inhibition (bud development) ([1]; rms1-10, direct application, result in words): no effect; Stability [2]: poorly stable
